According to BindingDB's records for doi:10.1016/j.bmcl.2005.12.017 (Abbott Laboratories, 2006):

Biological target: T1, RAC-alpha serine/threonine-protein kinase [139-480,S378A,S381A,T450D,S473D] (Homo sapiens, UniProt P31749, S378A/S381A/S473D/T450D)
T1 construct: 139-480
Assay: Akt Kinase Assay
Procedure: The kinase assay uses His-Akt1 and a biotinylated peptide as substrate. The biotinylated peptides were immobilized on streptavidin-coated FLASH plates. After reaction, the 33P-phosphopeptide captured on the FLASH plates was measured with a TopCount Packard Instruments […] (Packard Instruments, Boston, MA).

T1 sequence (P31749 139-480 S378A/S381A/T450D/S473D): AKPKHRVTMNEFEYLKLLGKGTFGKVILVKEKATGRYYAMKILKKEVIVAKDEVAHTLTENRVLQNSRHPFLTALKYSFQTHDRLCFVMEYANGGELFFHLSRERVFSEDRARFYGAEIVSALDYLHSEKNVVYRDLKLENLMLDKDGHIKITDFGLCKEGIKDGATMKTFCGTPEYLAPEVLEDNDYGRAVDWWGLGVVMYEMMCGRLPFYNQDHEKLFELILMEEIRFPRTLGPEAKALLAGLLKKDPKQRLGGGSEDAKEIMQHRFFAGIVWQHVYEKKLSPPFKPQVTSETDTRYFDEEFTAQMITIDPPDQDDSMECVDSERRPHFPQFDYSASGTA

| SMILES | IC50 | IC50 (pH 7.5, 22 °C) |
| --- | --- | --- |
| N[C@H](COc1cncc(/C=C/c2ccncc2)c1)Cc1csc2ccccc12 [3-[(2S)-2-amino-3-(1-benzothiophen-3-yl)propoxy]-5-[(E)-2-(pyridin-4-yl)ethenyl]pyridine] | 142 nM |  |
| N[C@H](CNc1cnc(Cl)c(/C=C/c2ccncc2)c1)CC1CNc2ccccc21 (stereo partly drawn) [N-[(2S)-2-amino-3-(2,3-dihydro-1H-indol-3-yl)propyl]-6-chloro-5-[(E)-2-(pyridin-4-yl)ethenyl]pyridin-3-amine] | 79 nM |  |
| N[C@H](COc1cncc(/C=C/c2ccncc2)c1)C(c1ccccc1)c1ccccc1 [3-[(2S)-2-amino-3,3-diphenylpropoxy]-5-[(E)-2-(pyridin-4-yl)ethenyl]pyridine] |  | 6760 nM |
| C(=C\c1cncc(OC[C@@H]2CCCN2)c1)/c1ccncc1 [3-[(E)-2-(pyridin-4-yl)ethenyl]-5-[(2S)-pyrrolidin-2-ylmethoxy]pyridine] |  | 23900 nM |
| N[C@H](COc1cnc(Cl)c(/C=C/c2ccncc2)c1)Cc1c[nH]c2ccccc12 [3-[(2S)-2-amino-3-({6-chloro-5-[(E)-2-(pyridin-4-yl)ethenyl]pyridin-3-yl}oxy)propyl]-1H-indole] | 23 nM |  |
| N[C@H](COc1cncc(/C=C/c2ccnc(NC3CC3)c2)c1)Cc1c[nH]c2ccccc12 [4-[(E)-2-{5-[(2S)-2-amino-3-(1H-indol-3-yl)propoxy]pyridin-3-yl}ethenyl]-N-cyclopropylpyridin-2-amine] | 69 nM |  |
| Brc1ccc(/C=C/CNCCOc2cncc(/C=C/c3ccncc3)c2)cc1 [[(2E)-3-(4-bromophenyl)prop-2-en-1-yl][2-({5-[(E)-2-(pyridin-4-yl)ethenyl]pyridin-3-yl}oxy)ethyl]amine] | 32200 nM |  |
| Nc1cc(/C=C/c2cncc(OC[C@@H](N)Cc3c[nH]c4ccccc34)c2)ccn1 [4-[(E)-2-{5-[(2S)-2-amino-3-(1H-indol-3-yl)propoxy]pyridin-3-yl}ethenyl]pyridin-2-amine] | 121 nM |  |
| N#Cc1cccc(C[C@H](N)COc2cncc(/C=C/c3ccncc3)c2)c1 [3-[(2S)-2-amino-3-({5-[(E)-2-(pyridin-4-yl)ethenyl]pyridin-3-yl}oxy)propyl]benzonitrile] |  | 320 nM |
| CC(C)[C@H](N)COc1cncc(/C=C/c2ccncc2)c1 [3-[(2S)-2-amino-3-methylbutoxy]-5-[(E)-2-(pyridin-4-yl)ethenyl]pyridine] |  | 19300 nM |
| N[C@H](COc1cncc(/C=C/c2ccncc2)c1)Cc1cccc(O)c1 [3-[(2S)-2-amino-3-({5-[(E)-2-(pyridin-4-yl)ethenyl]pyridin-3-yl}oxy)propyl]phenol] |  | 875 nM |
| NCC(c1ccccc1)c1cncc(/C=C/c2ccncc2)c1 (configuration not stated) [2-phenyl-2-{5-[(E)-2-(pyridin-4-yl)ethenyl]pyridin-3-yl}ethan-1-amine] | 284 nM |  |
| C(=C\c1cncc(OC[C@@H]2CCN2)c1)/c1ccncc1 [3-[(2S)-azetidin-2-ylmethoxy]-5-[(E)-2-(pyridin-4-yl)ethenyl]pyridine] |  | 10900 nM |
| N[C@H](COc1cncc(/C=C/c2ccnc(-n3ccc4ccccc43)c2)c1)Cc1c[nH]c2ccccc12 [1-{4-[(E)-2-{5-[(2S)-2-amino-3-(1H-indol-3-yl)propoxy]pyridin-3-yl}ethenyl]pyridin-2-yl}-1H-indole] | 3340 nM |  |
| N[C@H](COc1cncc(/C=C/c2ccnc(NCc3ccccc3)c2)c1)Cc1c[nH]c2ccccc12 [4-[(E)-2-{5-[(2S)-2-amino-3-(1H-indol-3-yl)propoxy]pyridin-3-yl}ethenyl]-N-benzylpyridin-2-amine] | 147 nM |  |
| N[C@H](COc1ccc(/C=C/c2ccncc2)cn1)Cc1ccccc1 [2-[(2S)-2-amino-3-phenylpropoxy]-5-[(E)-2-(pyridin-4-yl)ethenyl]pyridine] | 43000 nM |  |

| SMILES | IC50 | IC50 (pH 7.5, 22 °C) |
| --- | --- | --- |
| N[C@@H](CCc1ccccc1)COc1cncc(/C=C/c2ccncc2)c1 [3-[(2S)-2-amino-4-phenylbutoxy]-5-[(E)-2-(pyridin-4-yl)ethenyl]pyridine] |  | 8020 nM |
| N[C@H](COc1cncc(/C=C/c2ccncc2)c1)Cc1ccc2ccccc2c1 [3-[(2S)-2-amino-3-(naphthalen-2-yl)propoxy]-5-[(E)-2-(pyridin-4-yl)ethenyl]pyridine] |  | 146 nM |
| CNc1cc(/C=C/c2cncc(OC[C@@H](N)Cc3c[nH]c4ccccc34)c2)ccn1 [4-[(E)-2-{5-[(2S)-2-amino-3-(1H-indol-3-yl)propoxy]pyridin-3-yl}ethenyl]-N-methylpyridin-2-amine] | 176 nM |  |
| CCNc1cc(/C=C/c2cncc(OC[C@@H](N)Cc3c[nH]c4ccccc34)c2)ccn1 [4-[(E)-2-{5-[(2S)-2-amino-3-(1H-indol-3-yl)propoxy]pyridin-3-yl}ethenyl]-N-ethylpyridin-2-amine] | 163 nM |  |
| COc1cc(/C=C/c2cncc(OC[C@@H](N)Cc3c[nH]c4ccccc34)c2)ccn1 [3-[(2S)-2-amino-3-({5-[(E)-2-(2-methoxypyridin-4-yl)ethenyl]pyridin-3-yl}oxy)propyl]-1H-indole] | 2670 nM |  |
| N[C@H](COc1cncc(/C=C/c2ccncc2)c1)Cc1cccc2ccccc12 [3-[(2S)-2-amino-3-(naphthalen-1-yl)propoxy]-5-[(E)-2-(pyridin-4-yl)ethenyl]pyridine] |  | 324 nM |
| N[C@H](CCc1cnc(Cl)c(/C=C/c2ccncc2)c1)Cc1c[nH]c2ccccc12 [(2R)-4-{6-chloro-5-[(E)-2-(pyridin-4-yl)ethenyl]pyridin-3-yl}-1-(1H-indol-3-yl)butan-2-amine] | 198 nM |  |
| N[C@H](COc1cncc(/C=C/c2ccnc(Oc3ccccc3)c2)c1)Cc1c[nH]c2ccccc12 [3-[(2S)-2-amino-3-({5-[(E)-2-(2-phenoxypyridin-4-yl)ethenyl]pyridin-3-yl}oxy)propyl]-1H-indole] | 6450 nM |  |
| N[C@@H](Cc1ccccc1)C(=O)Nc1cncc(/C=C/c2ccncc2)c1 [(2S)-2-amino-3-phenyl-N-{5-[(E)-2-(pyridin-4-yl)ethenyl]pyridin-3-yl}propanamide] | 3200 nM |  |
| N[C@H](COc1cccc(/C=C/c2ccncc2)n1)Cc1c[nH]c2ccccc12 [3-[(2S)-2-amino-3-({6-[(E)-2-(pyridin-4-yl)ethenyl]pyridin-2-yl}oxy)propyl]-1H-indole] | 23300 nM |  |
| CN(C)[C@H](COc1cncc(/C=C/c2ccncc2)c1)Cc1c[nH]c2ccccc12 [[(2S)-1-(1H-indol-3-yl)-3-({5-[(E)-2-(pyridin-4-yl)ethenyl]pyridin-3-yl}oxy)propan-2-yl]dimethylamine] | 1100 nM |  |
| N[C@H](CNc1cncc(/C=C/c2ccncc2)c1)Cc1c[nH]c2ccccc12 [N-[(2S)-2-amino-3-(1H-indol-3-yl)propyl]-5-[(E)-2-(pyridin-4-yl)ethenyl]pyridin-3-amine] | 9.7 nM |  |
| N[C@H](COc1cncc(/C=C/c2ccnc(SCc3ccccc3)c2)c1)Cc1c[nH]c2ccccc12 [3-[(2S)-2-amino-3-({5-[(E)-2-[2-(benzylsulfanyl)pyridin-4-yl]ethenyl]pyridin-3-yl}oxy)propyl]-1H-indole] | 3110 nM |  |
| N[C@H](CNc1cnc(Cl)c(/C=C/c2ccncc2)c1)Cc1c[nH]c2ccccc12 [N-[(2S)-2-amino-3-(1H-indol-3-yl)propyl]-6-chloro-5-[(E)-2-(pyridin-4-yl)ethenyl]pyridin-3-amine] | 19 nM |  |
| Cn1cc(C[C@H](N)COc2cncc(/C=C/c3ccncc3)c2)c2ccccc21 [3-[(2S)-2-amino-3-({5-[(E)-2-(pyridin-4-yl)ethenyl]pyridin-3-yl}oxy)propyl]-1-methyl-1H-indole] | 500 nM |  |
| N[C@H](COc1cncc(/C=C/c2ccnc(Sc3ccccc3)c2)c1)Cc1c[nH]c2ccccc12 [3-[(2S)-2-amino-3-({5-[(E)-2-[2-(phenylsulfanyl)pyridin-4-yl]ethenyl]pyridin-3-yl}oxy)propyl]-1H-indole] | 6350 nM |  |
